From patent publication US9884063B2, “Amido-substituted azole compounds” (Bayer Pharma Aktiengesellschaft, priority 2014, dated 2018) come the findings set out here.

Test [1] deals with HEK293 FOP control reporter cell line. The test can be described thus: HEK293 FOP Assay (FOP control vector luciferase reporter). It counts as cell-based. The note with it: Homo sapiens. A digest of the protocol:
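Compound series 50 μM to 15 nM, 3.16-fold steps, were diluted in CAFTY buffer (pH 7.4, 2 mM Ca2+, 0.01% BSA) and tested alongside the TOP reporter line. Human Wnt-3a was added at 2500–5 ng/ml in two-fold steps. The control HEK293 line stably holds an FOP vector whose TCF elements are randomized and non-functional.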
In general terms: In a reporter assay the amount or activity of a reporter protein is the signal.

Another test concerns the target T1, TNKS2 (Homo sapiens, UniProt Q9H2K2).
T1 sequence (Q9H2K2 1-1166): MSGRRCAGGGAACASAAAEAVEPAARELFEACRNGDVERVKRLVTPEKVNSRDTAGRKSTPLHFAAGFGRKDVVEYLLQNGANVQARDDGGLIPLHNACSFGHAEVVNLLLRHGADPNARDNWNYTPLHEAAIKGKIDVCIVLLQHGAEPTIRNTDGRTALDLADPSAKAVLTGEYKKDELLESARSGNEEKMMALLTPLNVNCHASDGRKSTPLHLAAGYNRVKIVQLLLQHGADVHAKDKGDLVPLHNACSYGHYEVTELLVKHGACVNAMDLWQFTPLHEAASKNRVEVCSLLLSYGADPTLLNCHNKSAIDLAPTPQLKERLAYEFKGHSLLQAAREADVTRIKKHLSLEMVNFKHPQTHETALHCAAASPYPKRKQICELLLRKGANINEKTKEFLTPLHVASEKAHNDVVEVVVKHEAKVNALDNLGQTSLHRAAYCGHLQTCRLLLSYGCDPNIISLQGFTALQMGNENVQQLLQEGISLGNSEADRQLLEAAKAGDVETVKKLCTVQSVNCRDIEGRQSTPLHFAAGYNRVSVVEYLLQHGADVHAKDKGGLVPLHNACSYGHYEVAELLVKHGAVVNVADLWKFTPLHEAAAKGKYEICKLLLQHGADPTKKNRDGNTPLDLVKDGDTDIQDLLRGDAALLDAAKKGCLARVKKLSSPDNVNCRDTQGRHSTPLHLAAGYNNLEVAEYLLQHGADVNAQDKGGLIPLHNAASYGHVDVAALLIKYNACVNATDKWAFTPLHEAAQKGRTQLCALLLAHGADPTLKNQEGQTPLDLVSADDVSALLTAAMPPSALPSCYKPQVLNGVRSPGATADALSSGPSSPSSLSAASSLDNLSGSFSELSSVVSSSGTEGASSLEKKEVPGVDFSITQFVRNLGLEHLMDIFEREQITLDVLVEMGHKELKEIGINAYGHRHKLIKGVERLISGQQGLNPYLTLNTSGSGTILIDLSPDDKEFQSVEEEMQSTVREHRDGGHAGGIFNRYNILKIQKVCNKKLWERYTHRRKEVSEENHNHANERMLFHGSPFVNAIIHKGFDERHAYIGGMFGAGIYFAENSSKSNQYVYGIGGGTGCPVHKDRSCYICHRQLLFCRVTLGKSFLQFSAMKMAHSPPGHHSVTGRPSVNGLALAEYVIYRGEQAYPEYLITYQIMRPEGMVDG
The test can be described thus: TNKS2 Assay 1 (TNKS2 Histone Ribosylation Assay Kit, biotin-labeled NAD+). As to conditions: chemiluminescent readout, 384 well. It counts as biochemical. How it is done:
The potency of the compounds according to the invention was assessed applying an in vitro inhibition assay. The TNKS2 catalyzed NAD^+-dependent ribosylation of a suitable protein substrate was detected using a commercially available biotin/streptavidin binding based assay format [TNKS2 Histone Ribosylation Assay Kit (Biotin-labeled NAD+), Catalog #80572; BPS Bioscience, San Diego, USA]. Here, the incorporation of a biotin-labeled NAD+ during the TNKS2 catalyzed ribosylation reaction was detected with a streptavidin-HRP coupled chemi-luminescent readout. The intensity of the readout signal is proportional to the incorporated NAD^+. Inhibition of TNKS2 leads to a decreased incorporation of NAD^+ and consequently to a lower readout signal intensity. The concentration of a test compound which inhibits the enzyme activity by 50% (corresponds to half of the normed readout signal intensity) is reported as IC50.
The assay was conducted in a 384 well MTP format according to the manufacturer's protocol [bpsbioscience.com/poly-adp-ribose-polymerase/assay-kit/tnks2-histone-ribosylation-assay-kit-biotin-labeled-nad-80572 referencing: Brown, J. A., Marala, R. B. J. Pharmacol. Toxicol. Methods 2002 47:137-41]. and using a BMG Pherastar MTP reader [BMG-Labtech, Offenburg, Germany].

Where [2] appears, read: HEK293 FOP control reporter cell line, 16 hours incubation, compound dilution series 50 μM to 15 nM.
[3] abbreviates: HEK293 FOP control reporter cells, 16 hours, luciferase, dilution series from 50 μM.

With `CNC(=O)c1nc[nH]c1C(=O)Nc1ccc(NC(=O)c2ccc(F)cc2Cl)c(C)c1` [Example 5, N^5-{4-[(2-chloro-4-fluorobenzoyl)amino]-3-methylphenyl}-N^4-methyl-1H-imidazole-4,5-dicarboxamide], the IC50 in test [1] (setting [2]) came to 11000 nM; in test [1] (setting [3]) it was 11000 nM; on TNKS2 (Table 2), 470 nM; on TNKS2 (first table), 470 nM.

For `CNC(=O)c1nc[nH]c1C(=O)Nc1ccc(NC(=O)c2ccc(OCCN(C)C)cc2Cl)cc1` [Example 25, N^5-[4-({2-chloro-4-[2-(dimethylamino)ethoxy]benzoyl}amino)phenyl]-N^4-methyl-1H-imidazole-4,5-dicarboxamide], the IC50 in test [1] (setting [2]) is 34000 nM; in test [1] (setting [3]), 34000 nM; on TNKS2 (Table 2) it was 60 nM; on TNKS2 (first table), 60 nM.

With `CNC(=O)c1ncoc1C(=O)Nc1ccc(NC(=O)c2ccc(F)cc2Cl)cc1` [Example 11, N^5-{4-[(2-chloro-4-fluorobenzoyl)amino]phenyl}-N^4-methyl-1,3-oxazole-4,5-dicarboxamide], the results for the IC50 (in test [1] (setting [3]); against TNKS2 (Table 2); on TNKS2 (first table)) were at least 50000 nM, 90 nM and 120 nM, respectively.

The IC50 is the concentration at which inhibition is half-maximal. High values mean weaker potency, low ones greater potency.
